This note sets out measurements from patent publication US11407763B2, “Tryptophan hydroxylase inhibitor and pharmaceutical composition including same” (GWANGJU INSTITUTE OF SCIENCE AND TECHNOLOGY, priority 2017, dated 2022).

Molecules are shown by their SMILES. Where a name gives a salt, the structure may show the parent alone.

The term IC50 denotes the midpoint of a concentration-inhibition curve. Higher therefore signals lower potency.

Series [1] concerns DSS colitis. Kind of series: DSS colitis mouse model: colon length and colon looseness. The format is in vivo, C57BL/6J mice. Conditions: 100 mg/kg and 300 mg/kg oral, 7 days, 2.5% DSS. On the procedure: (§1) C57BL/6J (Jackson Lab) male mice weighing 25±2 g at 9 weeks of age were used, and all the mice were fed freely by providing standard experimental feed. The compound of Example 53 and LX1606 were dissolved in 0.25% methylcellulose (MC) solution, which was orally administered to mice at the dose of 100 and 300 mg/kg/time using a 1 mL syringe. The compound of Example 53 and LX1606 were administered for 7 days, starting one day prior to dextran sulfate sodium (DSS) administration. Before and after the administration, the samples of colon tissue were collected from each mouse treated with the compound of Example 53 or the control drug (LX1606) to confirm clinical symptoms. Data are expressed as mean±standard error of mean (SEM), and all statistical analyses were performed using GraphPad Prism (version 5.0, GraphPad Software, La Jolla, Calif.). Differences in mean between groups were statistically analyzed by two-way analysis of variance (ANOVA) and multiple comparison tests to reveal the differences between the experimental groups. P<0.05 was considered statistically significant.
Enteritis was induced in mice by freely drinking 2.5% DSS (molecular weight: 36,000-50,000 M.Wt; manufactured by MP Biomedicals, Canada) aqueous solution for 6 days, and the body weight, stiffness of the stool, and the presence or absence of bloody stool were observed daily from the start of the administration. […]

The test system of series [2] is DSS colitis. Type of series: in vivo, C57BL/6J mice. The conditions noted are these: mouse. As to the method:
as §1, with “P<0.05 was considered statistically significant.” left out
Colon permeability was measured to confirm if the compound of the present invention affected the amelioration of inflammatory bowel disorder. […] The importance of the intestinal epithelial layer was measured by the changes in intercellular permeability and intimate junction function observed in inflammatory bowel disease (IBD) and colorectal cancer. […]

Series [3] has as its target TPH1 (tryptophan hydroxylase 1) (Homo sapiens (Human), UniProt P17752). Kind of series: TPH1 inhibitor screening assay kit (BPS Bioscience), fluorescence. Type of series: biochemical. The conditions noted are these: TPH1 enzyme, 4 hours at 4° C., ex 300 nm / em 360 nm. On the procedure: In order to confirm the inhibitory effect of the compound represented by formula 1 according to the present invention on the tryptophan hydroxylase activity, it was measured using a TPH1 (tryptophan hydroxylase 1) inhibitor screening assay kit (BPS Bioscience, Catalog #72053). The TPH1 inhibitor screening assay kit was used according to the manufacturer's manual.
Particularly, the synthesized compound was dissolved in DMSO, which was added to a 96-well microplate (10 ? /well), to which TPH1 enzyme was added (40 ? /well). Then, TPH1 reaction solution was added to the microplate (50 ? /well) and the microplate was shaded with aluminum foil. The microplate was transferred to 4° C. environment, shaken carefully and incubated for 4 hours. After adding a quench solution to the microplate (10 ? /well), the TPH1 activity was measured by reading the degree of fluorescence color development with a Flexstation3 microplate reader. At this time, the excitation spectrum was 300 nm and the emission spectrum was 360 nm.

TPH1 (tryptophan hydroxylase 1), sequence (P17752 whole entry): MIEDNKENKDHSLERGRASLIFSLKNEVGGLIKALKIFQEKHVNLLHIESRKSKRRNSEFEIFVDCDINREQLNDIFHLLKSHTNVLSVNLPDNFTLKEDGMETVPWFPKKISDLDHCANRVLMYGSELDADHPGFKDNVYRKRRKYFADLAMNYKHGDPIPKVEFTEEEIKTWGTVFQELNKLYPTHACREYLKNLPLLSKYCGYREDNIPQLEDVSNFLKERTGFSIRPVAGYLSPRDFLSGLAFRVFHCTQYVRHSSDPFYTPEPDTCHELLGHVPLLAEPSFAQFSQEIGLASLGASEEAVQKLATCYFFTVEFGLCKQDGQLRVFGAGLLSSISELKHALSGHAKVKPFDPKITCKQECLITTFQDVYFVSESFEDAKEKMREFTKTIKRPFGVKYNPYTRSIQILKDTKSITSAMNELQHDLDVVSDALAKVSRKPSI

On to `CCOC(=O)[C@@H](N)Cc1ccc(-c2cc(O[C@H](c3ccc(Cl)cc3-n3ccc(C)n3)C(F)(F)F)nc(N)n2)cc1` [LX1606, (2S)-2-Amino-3-[4-[2-amino-6-[[(1R)-1-[4-chloro-2-(3-methylpyrazol-1-yl)phenyl]-2,2,2-trifluoroethyl]oxy]pyrimidin-4-yl]phenyl]propionic acid ethyl ester], for which the “colon length compared with vehicle group” value in series [1] is given as “not longer than that of the group treated with vehicle”.

Take `CCOC(=O)[C@@H](N)CC1CC=C(c2cc(O[C@H](c3ccc(Cl)cc3-n3ccc(C)n3)C(F)(F)F)nc(N)n2)CC1` (stereo partly drawn) [Example 53, ethyl (2S)-2-amino-3-(4-(2-amino-6-((R)-1-(4-chloro-2-(3-methyl-1H-pyrazole-1-yl)phenyl)-2,2,2-trifluoroethoxy)pyrimidine-4-yl)cyclohex-3-ene-1-yl)propionate hippurate]: the colon permeability entry in series [2] is “lower permeability was observed on average”.

The molecule `Nc1nc(O[C@H](c2ccc(Cl)cc2C2=CCC(F)(F)CC2)C(F)(F)F)cc(C2=CCC(C[C@H](N)C(=O)O)CC2)n1` (stereo partly drawn) [Example 75, (2S)-2-amino-3-(4-(2-amino-6-((R)-1-(5-chloro-4′,4′difluoro-2′,3′,4′,5′-tetrahydro-[1,1′-biphenyl]-2-yl)-2,2,2-trifluoroethoxy)pyrimidine-4-yl)cyclohex-3-ene-1-yl)propionic acid hydrochloride] yielded an IC50 in series [3] of 443 nM. This counts as sub-micromolar.

`N[C@@H](Cc1ccc(-c2csc3c(O[C@H](c4ccc(Cl)cc4-c4cccc(F)c4)C(F)(F)F)ncnc23)cc1)C(=O)O` [Example 24, (S)-2-amino-3-(4-(4-((R)-1-(5-chloro-3′-fluoro-[1,1′-biphenyl]-2-yl)-2,2,2-trifluoroethoxy)thieno[3,2-d]pyrimidine-7-yl)phenyl)propionic acid hydrochloride] yielded an IC50 in series [3] of 565 nM.

As to `N[C@@H](Cc1ccc(-c2csc3c(OC(c4ccc(Cl)cc4-c4ccccc4)C(F)(F)F)ncnc23)cc1)C(=O)O` (stereo partly drawn) [Example 26, (2S)-2-amino-3-(4-(4-(1-(5-chloro-[1,1′-biphenyl]-2-yl)-2,2,2-trifluoroethoxy)thieno[3,2-d]pyrimidine-7-yl)phenyl)propionic acid hydrochloride], the IC50 in series [3] is 679 nM.

As to `CCOC(=O)[C@@H](N)Cc1ccc(-c2csc3c(O[C@H](c4ccc(Cl)cc4-n4ccc(C)n4)C(F)(F)F)ncnc23)cc1` [Example 22, ethyl (S)-2-amino-3-(4-(4-((R)-1-(4-chloro-2-(3-methyl-1H-pyrazole-1-yl)phenyl)-2,2,2-trifluoroethoxy)thieno[3,2-d]pyrimidine-7-yl)phenyl)propionate hydrochloride], the half-inhibitory concentration (IC50) in series [3] stood at 993 nM. The IC50 values of the last two molecules are within 1.5-fold of each other.

In series [3], `Nc1nc(OC(c2ccc(Cl)cc2-c2ccccc2)C(F)(F)F)cc(C2=CCC(C[C@H](N)C(=O)O)CC2)n1` (stereo partly drawn) [Example 48, (2S)-2-amino-3-(4-(2-amino-6-(1-(5-chloro-[1,1′-biphenyl]-2-yl)-2,2,2-trifluoroethoxy)pyrimidine-4-yl)cyclohex-3-ene-1-yl)propionic acid hydrochloride] showed an IC50 of 433 nM. This IC50 is about 2.3-fold lower than that of the molecule before.
